Laboratory results taken from article PMC4721923 (PLoS ONE, 2015).

Experiments:
[1] = test system: MG-63 cells (osteosarcoma); assay: Chemosensitivity assay (crystal violet assay), MG-63; format: cell-based, human; settings: for IC50: 96 hours of incubation, crystal violet assay, mean ± SEM
Protocol: Depending on the characteristics of the cells, two different assays were performed. For adherently growing cells (HaCaT, HT-29, NCI-H460, SK-MEL-3, MG-63, Capan-1), cytotoxic and cytocidal effects were determined in the crystal violet assay, whereas for loosely adherent cells (LNCaP, SK-ES-1) and cells growing in suspension (HEL 92.1.7, Jurkat, U-937) the MTT-assay was used with minor modifications. In brief, 1.5 · 10^3 (HaCaT, HT-29, NCI-H460, SK-MEL-3, MG-63, Capan-1) or 5 · 10^3 (Jurkat, U-937, HEL92.1.7, LNCaP, SK-ES-1) cells per well were seeded into flat-bottom 96-well plates (Sarstedt, Nümbrecht, Germany). All compounds were used as solutions prepared in DMSO and tested at final concentrations (8 replicates per concentration) of 1, 3, 10, 30 and 50 μM. In case of the vehicle control and test compounds, the final DMSO concentration amounted to 0.1%. Absorbance was measured at 580 nm in a 96-well plate reader (GENios pro microplate reader, Tecan, Salzburg, Austria). Effects were quantified as previously described for both assays.

p53 in HT-29 cells = assay: p53 expression by immunoblotting, HT-29; format: cell-based, human; settings: HT-29 nuclear extracts; 10 μM; 24 hours
Protocol: The expression of the tumor suppressor p53 by NCI-H460 and HT-29 cells was determined after incubating the cells with compounds 1, 2, 4 and 5 at different concentrations for 24 hours. The cells (from a 10-cm culture dish, 70% confluency) were washed twice with PBS and harvested by scraping after addition of ice-cold buffer A (10 mM HEPES pH = 7.9, 10 mM KCl, 0.1 mM EDTA, 0.1 mM EGTA, protease inhibitor mix (Sigma-Aldrich)). After adding Nonidet P-40 (NP-40) (Sigma, Taufkirchen, Germany) to a final concentration of 1%, the cell suspensions were vortexed and subsequently centrifuged at 13000 g and 4°C for 30 seconds. The pellets were re-suspended in buffer B (buffer A + 400 mM NaCl, 1% NP-40) and gently agitated using a Sarmix M2000 (Sarstedt, Nümbrecht, Germany) at 4°C for 15 min, followed by centrifugation (13000 g, 4°C, 5 min; Microfuge; Eppendorf, Hamburg, Germany). The concentration of soluble protein was determined according to Bradford using the Bio-Rad Protein Assay (Bio-Rad Laboratories, Munich, Germany).
An amount of 30 μg total protein of each sample and 8 μL of a biotinylated molecular weight standard (1:6 dilution) (Cell Signaling, Danvers, MA, USA) was separated by SDS-PAGE (12% gel) and afterwards electroblotted (150 V, 30 min) to nitrocellulose membrane (Peqlab, Erlangen, Germany). To prevent unspecific binding, the membranes were treated with milk powder (5% (m/v) in buffer (150 mM NaCl, 20 mM Tris, 0.1% Tween 20, pH = 7.6)) before incubation with anti-p53 rabbit mAb (dilution 1:1000) (Cell Signaling) and anti-histone H2B Ab (dilution 1:1000) (Cell Signaling) as loading control at 4°C for 14 hours. The primary antibodies and the “protein ladder” were simultaneously detected with a horseradish peroxidase (HRP)-coupled donkey anti rabbit mAb (dilution 1:1000) (Santa Cruz biotechnology, Heidelberg, Germany) or the anti-biotin HRP-coupled antibody (dilution 1:5000) (Cell Signaling), respectively. The incubation with the secondary antibody was performed at room temperature for 1 hour. The bands were detected by […] using the Pierce ECL Western Blotting Substrate (Thermo Scientific, Dreieich, Germany). After exposure, the x-ray film (Amersham Hyperfilm ECL, GE Healthcare, München, Germany) was developed (CAWOMAT 2000 IR, CAWO, Schrobenhausen, Germany) and analyzed using a GS-710 imaging densitometer and Quantity One V. 4 software (Bio-Rad Laboratories, Munich, Germany).

OCT1 = molecular target: T1, OCT1 (Homo sapiens, UniProt O15245); assay: Flow cytometric ASP+-uptake inhibition, HEK-OCT1; format: cell-based; settings: for IC50: IC50, inhibition of ASP+-uptake, HEK-OCT1, 1 μM ASP+, ± SEM (N = 3)
T1 construct: containing the full length SLC22A1 cDNA (NM_003057) encoding the human OCT1 protein; expressed in transfected cells
T1 sequence (O15245 1-554): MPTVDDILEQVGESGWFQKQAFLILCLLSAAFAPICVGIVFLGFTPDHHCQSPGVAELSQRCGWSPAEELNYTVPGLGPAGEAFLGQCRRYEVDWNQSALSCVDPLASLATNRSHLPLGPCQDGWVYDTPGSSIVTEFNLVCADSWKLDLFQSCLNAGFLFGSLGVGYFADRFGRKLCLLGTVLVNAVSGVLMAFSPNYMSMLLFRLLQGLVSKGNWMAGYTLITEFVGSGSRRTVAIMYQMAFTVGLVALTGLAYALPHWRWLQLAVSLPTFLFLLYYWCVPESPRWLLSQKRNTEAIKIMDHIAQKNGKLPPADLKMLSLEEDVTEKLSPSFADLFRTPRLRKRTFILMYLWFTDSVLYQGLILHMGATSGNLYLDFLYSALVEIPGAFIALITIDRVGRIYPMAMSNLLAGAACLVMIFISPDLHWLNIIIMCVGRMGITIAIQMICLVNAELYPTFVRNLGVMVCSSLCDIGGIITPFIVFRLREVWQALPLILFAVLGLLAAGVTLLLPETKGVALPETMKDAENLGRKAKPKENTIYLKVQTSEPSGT
Protocol: The previously described fluorescent substrate of organic cation transporters, 4-(4-dimethylaminostyryl)-N-methylpyridinium (ASP^+), was used to determine the function of OCT1 and OCT3 by flow cytometry in the absence and the presence of bendamustine and selected bendamustine esters. HEK293 cells expressing the transporter of interest were trypsinized and washed twice with PBS, prior to re-suspension of 0.5 · 10^6 cells in 500 μL of PBS containing 2% (v/v) FCS. The cells were incubated with ASP^+ (100 μM stock solution in PBS containing 10% DMSO) for 5 minutes, allowing for cellular accumulation, and subsequently analyzed with a FACSCalibur flow cytometer. ASP^+ was excited at 488 nm and the fluorescence was measured using a 530/30 nm and a 585/42 band-pass filter. At least 1 · 10^4 single cells were analyzed by appropriate FSC/SSC gating.
The cells were pre-incubated with the respective test compound at different concentrations at room temperature for 10 minutes. Afterwards, ASP^+ was added to a final concentration of 1 μM, and the samples were incubated at 37°C in the dark for 5 minutes. Subsequently, the cells were washed, re-suspended in ice-cold PBS/FCS and stored on ice in the dark until measurement.
The normalized mean fluorescence intensities of the OCT expressing cells, set to 100% in the absence of an inhibitor, were calculated by subtracting the mean fluorescence intensity of unspecific ASP^+ uptake into HEK-Co control cells. The normalized fluorescence intensities in the presence of an inhibitor were plotted against the logarithm of the concentrations of the test compounds to calculate IC50 values. The “log (inhibitor) vs. normalized response-variable slope” equation of GraphPad Prism 5.01 was used for this purpose.

SMILES | IC50 [1] [µM] | IC50 ([1]; Homo sapiens, MG-63, 96 h) [µM] | concentrations with cytocidal drug effects ([1]; kinetic assay, long-term exposure (S6 Fig)) | p53 expression (p53 in HT-29 cells) | IC50 (OCT1) [µM] | inhibition at 5 min, 200 µM (OCT1; human, 200 μM (highest examined concentration)) [%] | potency factor relative to TPA at OCT1 (OCT1; from IC50 values)
Cn1c(CCCC(=O)O)nc2cc(N(CCCl)CCCl)ccc21 [Compound 1, bendamustine, reference compound] | 55.8 ± 1.9 | ~56 | above 30 μM | slight induction | > 200 | 35 | 
COC(=O)CCCc1nc2cc(N(CCCl)CCCl)ccc2n1C [Compound 2] |  | 1.9 ± 0.1 |  | increased the expression of p53 | 11.3 ± 1.9 |  | 
Cn1c(CCCC(=O)OCCN2CCOCC2)nc2cc(N(CCCl)CCCl)ccc21 [Compound 4] |  | 3.5 ± 0.1 |  | increased the expression of p53 | 10.1 ± 2.5 |  | 
Cn1c(CCCC(=O)OCCN2CCCC2)nc2cc(N(CCCl)CCCl)ccc21 [Compound 5] |  | 0.38 ± 0.06 |  | increased the expression of p53 | 0.35 ± 0.03 |  | approximately 20
